Peptide text beside a SMILES is read from it. * marks the point of attachment. Cbz = O=C(OCc1ccccc1)*
Assays:
[1] = test system: p-METTL3 (S43); assay: p-METTL3 (S43) in A375 cells, IP with METTL3 antibody followed by immunoblot; format: cell-based, human; details: 1 h, 1 μM dabrafenib, 1 μM PLX-4720, 10 μM PD0325901, 0.1 μM trametinib
Text: FIGS. 10A-10G: ERK Interacts and Phosphorylates METTL3 and WTAP. (A-C) Mass spectrometry detected S43, S50 and S525 phosphorylation in METTL3 in 293T cells co-transfected with B-RAF V600E. (D) Characterization of anti-p-METTL3 (S43) antibodies of 293T cells transfected as indicated with MEK S218D/S222D, HER2 V659E, B-RAF V600E and WT or non-phosphorylatable alanine mutant (3A) METTL3. (E) The METTL3 S43 phosphorylation was identified by in vitro kinase assays, in which purified METTL3-METTL14 were incubated with activated ERK2. (F) A375 cells were treated with 1 μM dabrafenib, 1 μM PLX-4720, 10 μM PD0325901, 0.1 μM tramentib for 1 h. Cell lysates were subjected to IP with METTL3 antibody followed by immunoblot. (G) Phos-tag SDS-PAGE showing the phosphorylation status of WT or non-phosphorylatable alanine mutants of mice WTAP in 293T cells co-transfected with B-RAF. 2A, T298A/S341A.
To investigate METTL3 phosphorylation by ERK inside cells, a polyclonal antibody was generated that targets S43-phosphorylated METTL3. This antibody recognizes S43-phosphorylated METTL3 but not a mutant form of METTL3, METTL3 3A, with all three phosphorylation serine sites replaced with alanine (FIG. 10D). This P-S43 antibody was then used as a tool to monitor METTL3 phosphorylation. […] Furthermore, the p-METTL3 (S43) in A375 cells, a human melanoma cell line with constitutively active ERK due to a B-RAF V600E mutation, was abrogated by treatments with B-RAF inhibitors (dabrafenib and PLX4720) or MEK inhibitors (PD0325901 and trametinib) (FIG. 10F), supporting that S43 phosphorylation on METTL3 is installed through the ERK pathway.
Immunoprecipitation, immunoblotting, and in vitro kinase assay. Immunoprecipitation (IP) and immunoblotting (IB) were performed as previously described (Sun et al., 2016). […] Primary antibodies were detected by HRP-linked secondary antibodies (Cell Signaling) together with SuperSignal West Pico Plus chemiluminescent substrate (Thermo Scientific) and imaged in a FluorChem R system (ProteinSimple).

[2] = test system: A375 cells; assay: Cell viability of control or METTL3 knockdown A375 cells after treatment with DNA damage repair modulators; format: cell-based, human; details: METTL3 knockdown versus control
Procedure: FIGS. 24A-24E: The synergistic damage effects of METTL3 knockdown with DNA damage repair modulators or inhibitors of specific DNA repair pathways in cancer cells. […] Error bars indicate mean±s.e.m. P values were determined by two-tailed t-test. (E) Analysis of dsDNA break in the control or METTL3 knockdown colon cancer cells. TUNEL assay was performed.

[3] = test system: METTL3 in SKBR3 cells; assay: Immunofluorescence analysis of METTL3 in SKBR3 cells; format: cell-based; details: 1 μM, 8 hr
Procedure: (§1) FIGS. 6A-6H: Phosphorylation of the m^6A Methyltransferase Complex May Affect Tumorigenesis. (A) Lysates of A375 stable transfectants harvested at different time points after treatment with cycloheximide (CHX) 10 μg/ml were analyzed by immunoblot. (B) LC-MS/MS quantification of the m^6A/A ratio in mRNA of A375 stable transfectants. (C) After 8 h treatment with 10 μM PD0325901 or 0.1 μM tramentib, cell lysates from A375 cells were analyzed by immunoblot. (D) LC-MS/MS quantification of the m^6A/A ratio in mRNA of A375 cells treated with 10 μM PD0325901 or 0.1 μM tramentib for 48 h. (E) After 8hr treatment with 10 μM EOAI3402143 (EOAI) or 30 μM vialinin A , cell lysates from A375 cells were analyzed by immunoblot. (F) A375 stable transfectants as indicated were treated with 3 μM EOAI3402143 (EOAI) or 10 μM vialinin A before measuring cell viability by SRB assay. Data are presented as relative to the R-WT cells without drug treatment (n=3 per group, data represent mean±SEM). (G) Immunofluorescence analysis of METTL3 (green) in SKBR3 cells treated with 1 μM tucatinib and 1 μM lapatinib for 8 hr. DAPI (blue) was used to mark the nucleus. (H) LC-MS/MS quantification of the m^6A/A ratio in mRNA of SKBR3 and BT474 cells treated with 1 μM tucatinib and 1 μM lapatinib for 48 h. […]
Confocal Microscopy. […] Confocal fluorescence images were captured using Olympus FV1000 confocal spectral microscope.

[4] = test system: mRNA m^6A in SKBR3 and BT474 cells; assay: LC-MS/MS quantification of the m^6A/A ratio in mRNA of SKBR3 and BT474 cells; format: cell-based; details: 1 μM, 48 h
Procedure: as §1, with “(F) A375 stable transfectants as indicated were treated with 3 μM EOAI3402143 (EOAI) or 10 μM vialinin A before measuring cell viability by SRB assay. Data are presented as relative to the R-WT cells without drug treatment (n=3 per group, data represent mean±SEM). (G) Immunofluorescence analysis of METTL3 (green) in SKBR3 cells treated with 1 μM tucatinib and 1 μM lapatinib for 8 hr. DAPI (blue) was used to mark the nucleus.” left out
LC-MS/MS quantification of m^6A in poly(A) RNA. mRNA was extracted from the total RNA using 2 rounds of the Dynabeads mRNA purification kit. […] The nucleosides were quantified by using the nucleoside-to-base ion mass transitions of 282 to 150 (m^6A) and 268 to 136 (A). Quantification was carried out by comparison with a standard curve obtained from pure nucleoside. The ratio of m^6A to A was calculated based on the calibrated concentrations (Liu et al., 2018).

[5] = test system: METTL3 / m^6A methyltransferase complex in A375 cells; assay: Immunoblot of METTL3 / m^6A methyltransferase complex protein in A375 cell lysates; format: cell-based, human
Procedure: FIGS. 6A-6H: Phosphorylation of the m^6A Methyltransferase Complex May Affect Tumorigenesis. (A) Lysates of A375 stable transfectants harvested at different time points after treatment with cycloheximide (CHX) 10 μg/ml were analyzed by immunoblot. (B) LC-MS/MS quantification of the m^6A/A ratio in mRNA of A375 stable transfectants. (C) After 8 h treatment with 10 μM PD0325901 or 0.1 μM tramentib, cell lysates from A375 cells were analyzed by immunoblot. (D) LC-MS/MS quantification of the m^6A/A ratio in mRNA of A375 cells treated with 10 μM PD0325901 or 0.1 μM tramentib for 48 h. (E) After 8hr treatment with 10 μM EOAI3402143 (EOAI) or 30 μM vialinin A , cell lysates from A375 cells were analyzed by immunoblot. (F) A375 stable transfectants as indicated were treated with 3 μM EOAI3402143 (EOAI) or 10 μM vialinin A before measuring cell viability by SRB assay. Data are presented as relative to the R-WT cells without drug treatment (n=3 per group, data represent mean±SEM). (G) Immunofluorescence analysis of METTL3 (green) in SKBR3 cells treated with 1 μM tucatinib and 1 μM lapatinib for 8 hr. DAPI (blue) was used to mark the nucleus. (H) LC-MS/MS quantification of the m^6A/A ratio in mRNA of SKBR3 and BT474 cells treated with 1 μM tucatinib and 1 μM lapatinib for 48 h. (See also FIG. 14.)
(§2) FIGS. 11A-11G: USP5 is Required for ERK-Mediated METTL3 Stabilization. (A) A375 cells transfected with HA-ubiquitin (ub) were treated with 10 μM MG-132 and MEK inhibitor PD0325901 for 8 h. The ubiquitination of METTL3 was detected by IP with anti-METTL3 and immunoblot with anti-HA. (B) After 8 h treatment with 10 μM PD0325901 with or without 10 μM MG-132, cell lysates from A375 cells were analyzed by immunoblot. (C) A375 cells were treated with various concentrations of PD0325901 for 1 h. Cell lysates were subjected to IP with METTL3 antibody followed by immunoblot. (D) 293T cells transfected as indicated were subjected to IP/immunoblot analysis. (E) Immunofluorescence analysis of myc-METTL3 (green) in mESC stable transfectants. DAPI (blue) was used to mark the nucleus. (F) Lysates of 293T cells transfected as indicated were subjected to IP with anti-Flag antibody followed by immunoblot. (G) Immunofluorescence analysis of 293T cells co-transfected with myc-METTL3 (green), Flag-USP5 (red) with or without constitutively active B-RAF.
Immunoprecipitation, immunoblotting, and in vitro kinase assay. Immunoprecipitation (IP) and immunoblotting (IB) were performed as previously described (Sun et al., 2016). In brief, protein samples were isolated from respective cells by lysis in RIPA buffer (1% Triton X-100, 150 mM NaCl, 20 mM Na2PO4, pH 7.4) containing Halt Protease and Phosphatase Inhibitor Cocktail (Thermo Scientific). Subsequently, a BCA assay (Thermo Scientific) was used to determine the protein concentrations. For IP, indicated antibody and protein A/G magnetic beads (Thermo Scientific) were incubated with lysate at 4° C. overnight followed by washing and elution with sample buffer. Equal amounts of protein were separated by SDS-PAGE followed by wet transfer to PVDF membranes. Blots were blocked with 5% non-fat milk or BSA and incubated with respective primary antibody at 4° C. overnight. Primary antibodies were detected by HRP-linked secondary antibodies (Cell Signaling) together with SuperSignal West Pico Plus chemiluminescent substrate (Thermo Scientific) and imaged in a FluorChem R system (ProteinSimple).

[6] = test system: ubiquitination of METTL3; assay: Ubiquitination of METTL3 in A375 cells transfected with HA-ubiquitin (IP anti-METTL3, immunoblot anti-HA); format: cell-based, human; details: 10 μM MG-132 and 10 μM EOAI3402143 or 30 μM vialinin A for 8 h
Procedure: as §2
FIGS. 14A-14I: Phosphorylation of the m^6A Methyltransferase Complex May Affect Tumorigenesis. […] (B) LC-MS/MS quantification of the m^6A/A ratio in mRNA of melanoma cell lines. (C) After 8 h treatment with 10 μM PD0325901 or 0.1 μM tramentib, cell lysates from HCT-116 cells were analyzed by immunoblot. […] The ubiquitination of METTL3 was detected by IP with anti-METTL3 and immunoblot with anti-HA. (F) After 8 hr treatment with 10 μM EOAI3402143 (EOAI) or 30 μM vialinin A, cell lysates from HCT-116 cells were analyzed by immunoblot. […] (I) LC-MS/MS quantification of the m^6A/A ratio in mRNA of breast cancer cell lines.
Immunoprecipitation, immunoblotting, and in vitro kinase assay. […] Primary antibodies were detected by HRP-linked secondary antibodies (Cell Signaling) together with SuperSignal West Pico Plus chemiluminescent substrate (Thermo Scientific) and imaged in a FluorChem R system (ProteinSimple).

CCCS(=O)(=O)Nc1ccc(F)c(C(=O)c2c[nH]c3ncc(Cl)cc23)c1F [PLX4720]
p-METTL3 (S43) [1]: abrogated

O=c1[nH]cc(F)c(=O)[nH]1 [5-FU]
effect on cell viability of DNA damage agent with METTL3 knockdown [2]: synergistic effects

CS(=O)(=O)CCNCc1ccc(-c2ccc3ncnc(Nc4ccc(OCc5cccc(F)c5)c(Cl)c4)c3c2)o1 [lapatinib]
METTL3 protein level [3]: reduce | cellular mRNA m^6A methylation (m^6A/A ratio) [4]: reduce

Bleomycin
effect on cell viability of DNA damage agent with METTL3 knockdown [2]: synergistic effects

CC(C)C[C@@H](C=O)NC(=O)[C@H](CC(C)C)NC(=O)[C@H](CC(C)C)NC(=O)OCc1ccccc1 [MG132] (Cbz-Leu-Leu-Leu-aldehyde)
PD0325901-induced degradation of METTL3 on addition of proteasome inhibitor ([5]; A375 cells, 10 μM PD0325901 with 10 μM MG-132, 8 h): restored

CC(C)(C)c1nc(-c2cccc(NS(=O)(=O)c3c(F)cccc3F)c2F)c(-c2ccnc(N)n2)s1 [dabrafenib]
p-METTL3 (S43) [1]: abrogated

C[C@@H]1COCCN1c1cc(C2([S@](C)(=N)=O)CC2)nc(-c2cc[nH]c3nccc2-3)n1 [AZD6738, ceralasertib]
cell death of METTL3 knockdown cells versus controls after DNA damage repair inhibitor [2]: more severe cell death

Cc1cc(Nc2ncnc3ccc(NC4=NC(C)(C)CO4)cc23)ccc1Oc1ccn2ncnc2c1 [tucatinib]
METTL3 protein level [3]: reduce | cellular mRNA m^6A methylation (m^6A/A ratio) [4]: reduce

C[C@]1(c2nc3c(C(N)=O)cccc3[nH]2)CCCN1 [veliparib]
cell death of METTL3 knockdown cells versus controls after DNA damage repair inhibitor [2]: more severe cell death

O=C(Cc1ccccc1)Oc1c(OC(=O)Cc2ccccc2)c(-c2ccc(O)cc2)c(O)c(O)c1-c1ccc(O)cc1 [vialinin]
ubiquitination of METTL3 [6]: increased | METTL3 protein level ([5]; A375 cells (also HCT-116, FIG. 14F), 8 hr, 10 μM EOAI3402143 or 30 μM vialinin A): decreased
